This is an account of results in PubChem BioAssay AID504322 (Emory University Molecular Libraries Screening Center, 2011).

The source made the active and inactive calls. No rule for the calls is given here. Where only a bound is given, the exact number is not on record here.

The subject of this assay is CHOP reporter cell assay, percent of control. Briefly: CHOP reporter inhibitor potency, dose response, cell-based (AID 504322).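 Also: CHO cells carrying a CHOP reporter stimulated with tunicamycin to induce ER stress; potency is for inhibition of the stress-induced reporter signal.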
With `COC(=O)c1ccc2c(c1)C(C)(C)C(/C=C/c1ccc(OC)c(OC)c1OC)=[N+]2C`, the IC50 (as a rule, the midpoint of a concentration-inhibition curve) was 9.48 µM (inactive).
The figure for `CC(C)(C)OC(=O)N[C@@H](Cc1ccccc1)c1nnc(S(=O)(=O)Cc2ccccc2)o1` is 5.59 µM (inactive); for `Cc1cc(Nc2cccc([N+](=O)[O-])c2)n2c(nc3ccccc32)c1C#N` it is 4.08 µM (inactive); for `N=c1n(Cc2ccccc2)c2ccccc2n1CC(O)COc1ccc(Cl)cc1Cl` (centres undefined) it is 6.92 µM (inactive).
Regarding `CC1=CCC[C@@H]2[C@@](C)(CC/C(C)=C/C(=O)O)[C@H](C)CC[C@@]12C`, the IC50 was 9.68 µM (inactive).
The figure for `CCn1c(C)nc2cc(-c3nnc(-c4c(-c5ccccc5)noc4C)o3)ccc21` is 8.88 µM (inactive); for `O=C1CC(c2ccccc2Cl)CC(O)=C1C=Nc1ccccc1` (centres undefined) it is 6.54 µM (inactive); for `O=C1NCN(c2ccccc2)C12CCN(CCCC(c1ccc(F)cc1)c1ccc(F)cc1)CC2` it is 7.76 µM (inactive).
`CC(C)(C)c1ccc(C2CC2C(=O)N/N=C\c2ccc[nH]2)cc1` (centres undefined): the IC50 is 4.18 µM (inactive).
To `O=C(/C=C\c1cn(-c2ccccc2)nc1-c1ccccc1)Nc1nccs1` belongs 6.03 µM (inactive); to `C=CCSc1n[nH]c(-c2ccc(OCCCC)cc2)n1`, > 10 µM (inactive); to `CCc1cc(-c2n[nH]c(C)c2Oc2ccc(C(C)C)cc2)c(O)cc1O`, 7.24 µM (inactive).
The figure for `COC(=O)c1ccc2c(c1)C(C)(C)C(/C=C/c1ccc(O)cc1)=[N+]2C` is > 10 µM (inactive); for `Cc1csc(NC(=O)CSc2nnc3c4ccccc4nc(C(C)(C)C)n23)n1` it is 9.55 µM (inactive); for `CCCCCCCCCS(=O)(=O)N/N=C/c1cccc([N+](=O)[O-])c1` it is 3.9 µM (inactive).
Take `O=[N+]([O-])c1ccc(S(=O)(=O)CC(CN2CCCCC2)N2CCCCC2)cc1` (centres undefined): the IC50 was 5.93 µM (inactive).
`CCc1ccc(OCc2n[nH]c(=S)n2C(C)CCCC(C)C)cc1` (centres undefined): the IC50 is 2.44 µM.
The figure for `Cc1ccc(/C=C2\SC(=S)N(CCCC(=O)Nc3ccc(O)cc3)C2=O)cc1` is 0.17 µM.
To `Cc1ccc(-c2nn(-c3ccccc3)cc2/C=N/NC(=O)c2ccc(Br)o2)cc1` belongs 5.04 µM; to `Cc1cc(C)c2nc(C(F)(F)F)c(C#N)c(N)c2c1`, 8.25 µM (inactive); to `O=C(CCl)Nc1cccc(-c2cnc3ccccc3n2)c1`, 6.64 µM (inactive).
In the case of `NS(=O)(=O)c1ccc(N/N=C2/CCCCC2C2CCCCC2)c([N+](=O)[O-])c1` (centres undefined), the IC50 was 5.37 µM (inactive).
The figure for `O=S(=O)(/C(=C/c1ccc(C(F)(F)F)cc1)c1nc2ccccc2[nH]1)c1ccccc1` is 5.46 µM (inactive); for `O=C(NCCNC(=O)c1cc(OCC(F)(F)F)ccc1OCC(F)(F)F)Nc1cccc(C(F)(F)F)c1` it is 2.57 µM; for `Cc1cc(C)cc(NC(=O)/C(C#N)=C/c2cn(CC(=O)NCc3ccco3)c3ccccc23)c1` it is 1.17 µM.
To `CC1=C/C(=N\OS(=O)(=O)c2ccccc2)C=CC1=O` belongs 1.43 µM; to `Cc1ccc(Cl)cc1NC1=C/C(=N\S(=O)(=O)c2cccs2)c2ccccc2C1=O`, 3.94 µM.
To `C=C(C)COc1ccc(-c2[nH]ncc2Oc2ccccc2OCC)c(O)c1` belongs 1.94 µM; to `O=C1C=CC(=O)N1CCCCCCN1C(=O)C=CC1=O`, 4.94 µM; to `COc1ccc(Cn2c(SCc3cc(C)ccc3C)nc3cc(OC)c(OC)cc3c2=N)cc1`, 3.55 µM (inactive).
With `Cc1cccc(N2CCN(C(=O)CS(=O)(=O)Cc3nc(-c4ccccc4F)oc3C)CC2C)c1` (centres undefined), the IC50 is > 10 µM (inactive).
In the case of `COc1cc(/C=N/O)cc(Br)c1OCc1cccc(Cl)c1`, the IC50 is 6.16 µM (inactive).
The figure for `CCc1ccc(NP(=O)(Oc2ccccc2F)Oc2ccccc2F)cc1` is 9.66 µM (inactive).
The figure for `O=C(c1ccc(COc2ccc(Cl)cc2)o1)N1N=C(C(F)F)CC1(O)C(F)F` (centres undefined) is 9.64 µM (inactive).
